# Measured values published in patent publication EP4691482A1, “LONG-ACTING CALCITONIN ANALOG” (Chengdu Aoda Biotechnology Co., Ltd., priority 2023, dated 2024).
# Experiments:
# [1] = target: T1, calcitonin receptors (CTR) (Homo sapiens, UniProt P30988); assay: cAMP determination (HTRF, cAMP Dynamic 2 Kit) in cAMP Hunter HEK293-CT-R Gs cell line; type: cell-based
# T1 construct: expressed in transfected cells; host or cells: cAMP Hunter HEK293-CT-R Gs cell line (HEK293, stably transfected)
# T1 sequence (P30988 25-474): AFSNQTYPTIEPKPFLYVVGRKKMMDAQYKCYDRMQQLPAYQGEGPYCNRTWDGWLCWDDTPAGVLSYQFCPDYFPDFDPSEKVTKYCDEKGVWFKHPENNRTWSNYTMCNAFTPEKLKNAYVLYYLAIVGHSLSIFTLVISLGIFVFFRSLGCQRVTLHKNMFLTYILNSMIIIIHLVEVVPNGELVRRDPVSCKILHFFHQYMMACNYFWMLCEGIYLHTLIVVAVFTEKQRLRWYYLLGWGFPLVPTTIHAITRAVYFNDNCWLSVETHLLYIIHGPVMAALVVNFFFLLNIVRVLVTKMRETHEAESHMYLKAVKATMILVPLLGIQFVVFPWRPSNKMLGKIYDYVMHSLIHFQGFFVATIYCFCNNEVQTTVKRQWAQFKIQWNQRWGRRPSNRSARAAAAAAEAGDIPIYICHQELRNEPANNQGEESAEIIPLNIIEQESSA
# in vivo = assay: in vivo; parameters: species or system Macaca fascicularis; conditions: cynomolgus monkey, sc, 0.1 mg/kg
# Experimental: Macaca fascicularis were used as experimental animals. A subcutaneous administration was performed at a dose of 0.1 mg/kg. Venous blood samples were collected before administration (0 h) and at 1 h, 2 h, 3 h, 4 h, 8 h, 12 h, 18 h, 24 h, 48 h, 96 h, 144 h, and 168 h post-administration. Plasma samples were separated by centrifugation. The plasma concentration of the compound in the plasma samples was determined using liquid chromatography-mass spectrometry.
"Relative Activity% ([1]; relative to Salmon Calcitonin = 100.0, HEK293 CT-R cAMP) [%]",half-life (in vivo) [h],"EC50 ([1]; HEK293 cell line stably expressing CT-R, intracellular cAMP, HTRF) [pM]",Structure (SMILES)
339.3,53.6,,"CC(C)C[C@H](NC(=O)[C@H](CCCCN)NC(=O)CNC(=O)[C@H](CC(C)C)NC(=O)[C@@H](NC(=O)[C@@H]1CSSC[C@H](N)C(=O)N[C@@H](CO)C(=O)N[C@@H](CC(N)=O)C(=O)N[C@@H](CC(C)C)C(=O)N[C@@H](CO)C(=O)N[C@@H]([C@@H](C)O)C(=O)N1)C(C)C)C(=O)N[C@@H](CO)C(=O)N[C@@H](CCC(N)=O)C(=O)N[C@@H](CCC(=O)O)C(=O)N[C@@H](CC(C)C)C(=O)N[C@@H](Cc1c[nH]cn1)C(=O)N[C@@H](CCCCNC(=O)COCCOCCOCCOCCOCCNC(=O)CC[C@H](NC(=O)CCCCCCCCCCCCCCCCCCC(=O)O)C(=O)O)C(=O)N[C@@H](CC(C)C)C(=O)N[C@@H](CCC(N)=O)C(=O)N[C@H](C(=O)N[C@@H](Cc1ccc(O)cc1)C(=O)N1CCC[C@H]1C(=O)N[C@@H](CCCNC(=N)N)C(=O)N[C@H](C(=O)N[C@@H](CC(N)=O)C(=O)N[C@H](C(=O)NCC(=O)N[C@@H](CO)C(=O)NCC(=O)N[C@H](C(=O)N1CCC[C@H]1C(N)=O)[C@@H](C)O)[C@@H](C)O)[C@@H](C)O)[C@@H](C)O [Compound 5, Cys-Ser-Asn-Leu-Ser-Thr-Cys-Val-Leu-Gly-Lys-Leu-Ser-Gln-Glu-Leu-His-Lys(PEG5CH2CO-γGlu-eicosanedioic acid)-Leu-Gln-Thr-Tyr-Pro-Arg-Thr-Asn-Thr-Gly-Ser-Gly-Thr-Pro-NH2]"
,,3.5,"CC(C)C[C@H](NC(=O)[C@H](CCCCN)NC(=O)CNC(=O)[C@H](CC(C)C)NC(=O)[C@@H](NC(=O)[C@@H]1CSSC[C@H](N)C(=O)N[C@@H](CO)C(=O)N[C@@H](CC(N)=O)C(=O)N[C@@H](CC(C)C)C(=O)N[C@@H](CO)C(=O)N[C@@H]([C@@H](C)O)C(=O)N1)C(C)C)C(=O)N[C@@H](CO)C(=O)N[C@@H](CCC(N)=O)C(=O)N[C@@H](CCC(=O)O)C(=O)N[C@@H](CC(C)C)C(=O)N[C@@H](Cc1c[nH]cn1)C(=O)N[C@@H](CCCCNC(=O)COCCOCCNC(=O)COCCOCCNC(=O)CC[C@H](NC(=O)CCCCCCCCCCCCCCCCCCCCC(=O)O)C(=O)O)C(=O)N[C@@H](CC(C)C)C(=O)N[C@@H](CCC(N)=O)C(=O)N[C@H](C(=O)N[C@@H](Cc1ccc(O)cc1)C(=O)N1CCC[C@H]1C(=O)N[C@@H](CCCNC(=N)N)C(=O)N[C@H](C(=O)N[C@@H](CC(N)=O)C(=O)N[C@H](C(=O)NCC(=O)N[C@@H](CO)C(=O)NCC(=O)N[C@H](C(=O)N1CCC[C@H]1C(N)=O)[C@@H](C)O)[C@@H](C)O)[C@@H](C)O)[C@@H](C)O [Compound 21, Cys-Ser-Asn-Leu-Ser-Thr-Cys-Val-Leu-Gly-Lys-Leu-Ser-Gln-Glu-Leu-His-Lys(AEEA-AEEA-γGlu-docosanedioic acid)-Leu-Gln-Thr-Tyr-Pro -Arg-Thr-Asn-Thr-Gly-Ser-Gly-Thr-Pro-NH2]"
